Results: patent US20240228491A1, “METHIONINE ADENOSYLTRANSFERASE INHIBITOR, PREPARATION METHOD THEREFOR AND APPLICATION THEREOF” (SCINNOHUB PHARMACEUTICAL CO., LTD., priority 2021, published 2024)

Assays:
MAT2a = MAT2a (Homo sapiens (Human), UniProt P31153); assay: MAT2a enzymatic activity test (colorimetric assay); type: biochemical; conditions: OD620, 150 min reaction, read-out: IC50 against MAT2a
Method: The Colorimetric assay method was used to detect the IC50 value of the tested compounds on MAT2a.
The specific steps were as follows: The compounds having the test starling concentration of 1 μM or 10 μM were diluted into 10 concentration points in a 3-fold gradient. 250 nL of the solutions of the compounds to be tested with 10 different concentrations were taken and added into a 384 well plate for later use. 20 μg/mL of MAT2a enzyme solution was prepared with Assay buffer (50 mM Tris, 50 mM KCl, 10 mM MgCl2, 0.05% polyoxyethylene lauryl ether, pH 8.0). 15 μL of the MAT2a enzyme solution at 20 μg/mL was add into the wells of the compounds to be tested at different concentrations; and 15 μL of Assay buffer was added into the negative control well. An incubation was carried out for 15 minutes after shaking for mixing well. A mixed substrate solution (comprising 400 μM ATP and 600 μM L-Methionine) was prepared with Assay buffer. 10 μL of the mixed substrate solution was added to the positive control well, the compound to be tested well, and the negative control well, respectively, and the reaction began, for a reaction time of 150 min. Then, 50 μL of the reaction stop solution (BIOMOL Green™ Reagent Enzo lifesciences, Cargo No. BML-AK111-1000) was added to stop the reaction, followed by being centrifuged at 1000 rpm for 60 s and then being incubated for 15 min. OD620 was read and data were processed.
By using the log value of the concentration as the X-axis and the inhibition % as the Y-axis, the IC50 value of each compound against enzyme activity was obtained through employing the log(inhibitor) vs. response-Variable slope fitting dose-effect curve of the analysis software GraphPad Prism 5.

HCT116 MTAP-/- cells = assay: Activity test of HCT116 MTAP gene homozygous deletion cells (CellTiter-Glo); type: cell-based; conditions: Homo sapiens, HCT-116, 120 h incubation, read-out: HCT116 MTAP-/- Cell IC50
Method: On day 1, cell seeding: after digestion of the cells with trypsin, the cells were resuspended to the desired density with the complete medium (RPMI-1640 supplemented with 10% FBS; the brand of FBS is EXCELL, Cat. No. FND500; the brand of RPMI-1640 is ATCC, Cat. No. 30-2001), mixed evenly, and added into the 96-well plate at 100 μL/well with a cell density of 1000-3000 cells per well. The plate was put back to the incubator for the adherent growth of cells. On day 2, the addition of the compounds to be tested: before the addition of the compounds, the cells were starved with serum-free medium for 4 h, then the complete medium containing the corresponding concentration of compounds was added thereto, and the cells were incubated at 37° C., 5% CO2 for 120 h. On day 7, the cell culture plates were taken out from incubator and equilibrated to room temperature. 50 μL of CellTiter-Glo (Promega Company, Cat. No. G7571) reagent was added per well, and the cells were fully lysed by shaking at room temperature for 2 min, and then incubated for another 60 min to detect the fluorescence intensity. Calculation formula:
(§1) % Inhibition=100−(signal of the well with the compound to be tested−signal of the well with only medium and free of cells)/(signal of the well with cells but without addition of the compound−signal of the well with only medium and free of cells)×100.
The fitting dose-effect curve of the analysis software GraphPad Prism 5 was used to give IC50 values of the individual compounds against cellular activity.

KP-4 cells = assay: Inhibitory activity test of KP-4 cells; type: cell-based; conditions: Homo sapiens, 144 h incubation, read-out: KP-4 cell inhibitory activity IC50
Method: On day 1, cell seeding: after digestion of the cells with trypsin, the cells were resuspended to 1*10^4/mL with RPMI1640 complete medium (HyClone Company, Cat. No. SH30809.01) supplemented with 10% FBS (Gibco, 10099141C), mixed evenly, and added into the 96-well plate at 100 μL/well. The plate was put back to the incubator for the adherent growth of cells. On day 2, the addition of the compounds to be tested: 100 μL of the complete medium containing the compounds (the concentration of the compound in the medium was formulated as follows: 3-fold gradient dilution from 60 μM, 10 concentration gradients in total) was added, incubated for 144 hours at 37° C., 5% CO2. On day 8, the cell culture plates were taken out from incubator and equilibrated to room temperature, excess medium was pipetted from the wells so that 50 μL of supernatant was retained, and 50 μL of CellCounting-Lite 2.0 (Nanjing Vazyme Biotech Co., Ltd., Cat. No. DD1101) reagent was added per well, and the cells were fully lysed by shaking at room temperature for 10 min, and incubated for 5 min to detect the fluorescence intensity.
as §1
(§2) The log value of concentration was used as the X-axis and % Inhibition was used as the Y-axis, so as to fit the dose-effect curve and calculate the IC50 value using nonlinear regression (dose response−variable slope) in the analysis software GraphPad Prism 8.

DOHH-2 cells = assay: Inhibitory activity test of DOHH-2 cells; type: cell-based; conditions: Homo sapiens, 120 h incubation, CellTiter-Glo, read-out: DOHH-2 cell inhibitory activity IC50
Method: On day 1, cell seeding: cells were resuspended to the desired density with DMEM complete medium (Gibico, Cat. No. 10569010) supplemented with 10% FBS (Gibco, 10099141C), mixed evenly, and added into the 384-well plate at 30 μL/well with a cell density of 800/well. The compounds to be tested were added as follows: 30 nL of DMSO solution containing the compound (the concentration of the compound in which was formulated as: 3-fold gradient dilution from 10 mM, 10 concentration points in total) was added, incubated for 120 h at 37° C., 5% CO2. On day 6, the cells treated with compounds were removed and equilibrated to room temperature, 30 μL of CellTiter-Glo (Promega company, Cat. No. G7573) reagent was added per well, and the cells were fully lysed by shaking at room temperature, and then incubated in dark at 37° C., 5% CO2 for 30 min, to detect the fluorescence intensity.
% Inhibition=100−(signal of the well with the compound to be tested−signal of the well with only medium and free of cells)/(signal of the well with cells but without the addition of the compound−signal of the well with only medium and free of cells)×100.
as §2

Sequence of MAT2a (P31153 whole entry): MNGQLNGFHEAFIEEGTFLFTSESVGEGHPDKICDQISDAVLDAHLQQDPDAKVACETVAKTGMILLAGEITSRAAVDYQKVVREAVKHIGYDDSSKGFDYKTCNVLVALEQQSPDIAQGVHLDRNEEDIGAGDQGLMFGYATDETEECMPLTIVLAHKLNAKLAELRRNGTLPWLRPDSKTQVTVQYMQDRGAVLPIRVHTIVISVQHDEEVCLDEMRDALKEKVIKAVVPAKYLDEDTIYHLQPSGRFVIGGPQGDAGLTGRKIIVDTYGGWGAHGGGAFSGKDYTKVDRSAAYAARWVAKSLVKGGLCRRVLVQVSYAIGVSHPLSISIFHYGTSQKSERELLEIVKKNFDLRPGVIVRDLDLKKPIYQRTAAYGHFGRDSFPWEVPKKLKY

Row | Structure (SMILES) | IC50 (MAT2a) [nM] | IC50 (HCT116 MTAP-/- cells) [nM] | IC50 (KP-4 cells) [nM] | IC50 (DOHH-2 cells) [nM]
1 | Nc1c(-c2ccc3ncoc3c2)c(=O)n(-c2ccc(Cl)cc2)c2nc(C(F)(F)F)ccc12 [Example 22] | 15 | 20.9 | 730 | 
2 | Nc1c(-c2ccc3c(c2)NC(=O)CO3)c(=O)n(-c2ccc(Cl)cc2)c2nc(C(F)(F)F)ccc12 [Example 54] | 16.2 |  | 960 | 
3 | Cn1cc(-c2c(N)c3ccc(C(F)(F)F)nc3n(-c3ccc(Cl)cc3)c2=O)ccc1=O [Example 44] | 13.4 | 18.6 | 490 | 495
4 | Nc1c(-c2ccc3ncncc3c2)c(=O)n(-c2ccc(Cl)cc2)c2nc(C(F)(F)F)ccc12 [Example 46] | 15.1 | 20.2 | 180 | 251
5 | CS(=O)(=O)CCn1ncc2cc(-c3c(N)c4ccc(C(F)(F)F)nc4n(-c4ccc(Cl)cc4)c3=O)ccc21 [Example 52] | 16.2 |  | 760 | 
6 | Nc1c(-c2ccc3nnccc3c2)c(=O)n(-c2ccc(Cl)cc2)c2nc(C(F)(F)F)ccc12 [Example 55] | 16.3 | 23.3 | 500 | 
7 | COc1ccc(-c2c(N)c3ccc(C(F)(F)F)nc3n(-c3ccc(Cl)cc3)c2=O)cc1 [Example 24] | 15.6 | 11.5 | 100 | 
8 | Nc1c(-c2ccco2)c(=O)n(-c2ccc(Cl)cc2)c2nc(C(F)(F)F)ccc12 [Example 30, 4-amino-1-(4-chlorophenyl)-3-(furan-2-yl)-7-(trifluoromethyl)-1,8-naphthyridin-2(1H)-one] | 13.4 | 22.3 | 550 | 
9 | Nc1c(-c2ccc3nccnc3n2)c(=O)n(-c2ccc(Cl)cc2)c2nc(C(F)(F)F)ccc12 [Example 67] | 18.1 | 16.3 | 750 | 
10 | Cc1ccc(-n2c(=O)c(-c3ccco3)c(N)c3ccc(C(F)(F)F)nc32)cc1 [Example 31] | 15.4 | 13.4 |  | 430
11 | Nc1c(-c2ccc(F)cc2)c(=O)n(-c2ccc(Cl)cc2)c2nc(C(F)(F)F)ccc12 [Example 42] | 15 | 8.38 | 480 | 
12 | Nc1c(-n2cccn2)c(=O)n(-c2ccc(Cl)cc2)c2nc(C(F)(F)F)ccc12 [Example 38] | 18.1 |  | 910 | 
13 | CNc1c(-c2ccc3ncn(C)c3c2)c(=O)n(-c2ccccc2)c2nc(C(F)(F)F)ccc12 [Example 27] | 17.5 | 231 | 1620 | 
14 | COCCn1ncc2cc(-c3c(N)c4ccc(C(F)(F)F)nc4n(-c4ccc(Cl)cc4)c3=O)ccc21 [Example 47] | 13.6 | 15.2 | 550 | 559
15 | Cn1cnc2ccc(-c3c(N)c4ccc(C(F)(F)F)nc4n(-c4ccc(Cl)cc4)c3=O)cc21 [Example 23] | 16.5 | 23 | 610 | 
16 | Nc1c(-n2cccc2)c(=O)n(-c2ccc(Cl)cc2)c2nc(C(F)(F)F)ccc12 [Example 3, 4-amino-1-(4-chlorophenyl)-3-(1H-pyrrol-1-yl)-7-(trifluoromethyl)-1,8-naphthyridin-2(1H)-one] | 12.7 | 12.7 | 170 | 

Row | Structure (SMILES) | IC50 (MAT2a) [nM] | IC50 (HCT116 MTAP-/- cells) [nM] | IC50 (KP-4 cells) [nM] | IC50 (DOHH-2 cells) [nM]
17 | Nc1c(-c2ccc3nccnc3c2)c(=O)n(-c2ccc(Br)cc2)c2nc(C(F)(F)F)ccc12 [Example 83] | 17.2 | 9.12 |  | 
18 | CNc1c(-n2cccn2)c(=O)n(-c2ccccc2)c2nc(C(F)(F)F)ccc12 [Example 15, 4-(methylamino)-1-phenyl-3-(1H-pyrazol-1-yl)-7-(trifluoromethyl)-1,8-naphthyridin-2(1H)-one] | 23.2 | 345 | 9730 | 
19 | Nc1c(-c2ccc3ncccc3c2)c(=O)n(-c2ccc(Cl)cc2)c2nc(C(F)(F)F)ccc12 [Example 45] | 14.8 | 6.37 | 190 | 
20 | Nc1c(-c2ccncn2)c(=O)n(-c2ccc(Cl)cc2)c2nc(C(F)(F)F)ccc12 [Example 39] | 19.8 |  | 410 | 
21 | CNc1c(-c2ccc(F)cc2)c(=O)n(-c2ccccc2)c2nc(C(F)(F)F)ccc12 [Example 26] | 17.8 | 617 | 10200 | 
22 | COc1cc(-c2c(N)c3ccc(C(F)(F)F)nc3n(-c3ccc(C)cc3)c2=O)ccn1 [Example 87] | 15.4 | 9.77 |  | 
23 | COc1ccc(-c2c(N)c3ccc(C(F)(F)F)nc3n(-c3ccc(Cl)cc3)c2=O)cn1 [Example 20] | 11.5 | 24.5 | 650 | 48
24 | Nc1c(-c2ccc3c(c2)OCCO3)c(=O)n(-c2ccc(Cl)cc2)c2nc(C(F)(F)F)ccc12 [Example 53] | 14.4 | 21.2 | 240 | 
25 | Cn1cc2cc(-c3c(N)c4ccc(C(F)(F)F)nc4n(-c4ccc(Cl)cc4)c3=O)ccc2n1 [Example 25] | 13.3 | 13 | 1220 | 507
26 | Nc1c(-c2ccc3nonc3c2)c(=O)n(-c2ccc(Cl)cc2)c2nc(C(F)(F)F)ccc12 [Example 69] | 16.6 |  |  | 663
27 | Nc1c(-n2cncn2)c(=O)n(-c2ccc(Cl)cc2)c2nc(C(F)(F)F)ccc12 [Example 41] | 18.4 |  | 3080 | 
28 | Nc1c(-c2ccc3ncsc3c2)c(=O)n(-c2ccc(Cl)cc2)c2nc(C(F)(F)F)ccc12 [Example 21] | 16.2 | 22.9 | 270 | 507
29 | Nc1c(-c2ccc3c(c2)OCO3)c(=O)n(-c2ccc(Cl)cc2)c2nc(C(F)(F)F)ccc12 [Example 19] | 12.3 | 13.1 | 890 | 
30 | Nc1ccc(-c2c(N)c3ccc(C(F)(F)F)nc3n(-c3ccc(Cl)cc3)c2=O)cc1 [Example 43] | 22 |  | 480 | 
31 | COc1cc(-c2c(N)c3ccc(C(F)(F)F)nc3n(-c3ccc(Cl)cc3)c2=O)ccn1 [Example 56] | 14.5 | 17.8 | 1110 | 
